These results are taken from EP4467153A1, “CONSTRAINED PEPTIDE INHIBITORS OF LRRK2-FADD INTERACTIONS” (University of Georgia Research Foundation, Inc., priority 2023, dated 2024).

Entries after “also recorded” stand apart in the source; their conditions may differ. Positions of bridges follow the written chain, without caps; N, C: chain ends. Non-standard residues stand in square brackets, D forms with d. Primed or numbered codes have the meaning given here. FAM = 5(6)-carboxyfluorescein label; S5 = C=CCCC[C@](C)(N)C(=O)O; PEG3′ = PEG3 spacer

Test [1] relates to primary cortical neurons expressing G2019S-LRRK2. Briefly: Assessment of neuronal death (apoptotic nuclear features of transfected neurons). The test is classed as cell-based, mouse. Conditions: 48hr treatment, vs vehicle. From the text:
Disruption of the LRRK2-FADD PPI is neuroprotective. It has been previously shown that over-expression of mutant LRRK2 (G2019S or other pathogenic mutations) in primary cortical neurons results in apoptotic death of the neurons (see Iaccarino C, Crosio C, Vitale C, Sanna G, Carri MT, Barone P (2007) Apoptotic mechanisms in mutant LRRK2-mediated cell death. Hum Mol Genet 16, 1319-1326); and this example continues this area of identifying pathway(s) underlying cell-autonomous neuronal death in models of LRRK2-PD. […] Disruption of this interaction by dominant negative fragments of both FADD and LRRK2, or by deletion of the predicted FADD-binding domain within LRRK2, is neuroprotective against over-expression of mutant LRRK2. To determine whether FARMS could effectively disrupt the apoptotic death of primary neurons induced by pathogenic LRRK2, mouse embryonic cortical neurons were transiently transfected with G2019S-LRRK2 and increasing concentrations of the FARMS peptide were added. In cultures of neurons expressing G2019S-LRRK2, apoptotic Flag-positive neurons with characteristic fragmented and condensed nuclear apoptotic features, were observed as has been reported previously. […] A third neuron is visible within this field (with a condensed nucleus), however it is not expressing Flag-LRRK2, so would not be included in the assessment of neuronal death. the dose response of neuroprotection of FARMS was determined by counting the percentage of transfected neurons (stained with anti-Flag antibodies).
Assessment of Neuronal Death. […] Cells were centrifuged and counted and plated on poly-D-lysine coated glass coverslips at a density of 150,000/cm^2 in BrainPhys neuronal culture medium (StemCell Technologies) supplemented with SM1 Neuronal Supplement (StemCell Technologies), L-glutamine (0.5 mM) and […]. […] For quantification of apoptotic neuronal profiles, we used the approach described by Antoniou and colleagues. Briefly, individual Flag-positive neurons were assessed by a research blinded to the experimental conditions.

In test [2] the target is T1, G2019S-LRRK2 (Homo sapiens, UniProt Q5S007, G2019S).
T1 construct: expressed in transfected cells; host or cells: HEK293T
Kind of test: LRRK2 kinase function in HEK293T cells co-transfected with G2019S-LRRK2 and Flag-Rab10 (western blot). The test is classed as cell-based. To be noted: G2019S-LRRK2 + Rab10, peptide at indicated concentrations, 24hr. On the procedure:
Since the peptides were designed to block LRRK2 from interacting with FADD, they should not have any effect on the catalytic kinase activity of LRRK2. To determine whether the PPI-disrupting FARMS peptide alters LRRK2 kinase activity in cells, HEK293T cells were co-transfected with WT or G019S-LRRK2 together with Rab10. Cells over-expressing mutant LRRK2 and human WT RablO were treated with FARMS and the cell extracts were probed for multiple indices of LRRK2 kinase activity including phosphorylated Rab10 and pS1292-LRRK2.
Assessment of LRRK2 kinase function. To determine whether peptides targeting the LRRK2-FADD PPI could also alter kinase function, LRRK2 activity was assessed in a cellular setting, through the phosphorylation of an endogenous substrate (pT73-Rab10), as well as auto-phosphorylation (pS1292-LRRK2). […] Parallel cultures were transfected with only WT or R1441C-LRRK2; and endogenous levels of phosphorylated RablO were assessed. Following 72hr of total expression, the cells were washed in cold PBS and collected. Cell lysis was performed using the following buffer: 50mM Tris HCl, pH 7.5; 1mM EGTA; 0.27 M sucrose; 1% Triton X-100; supplemented with protease and phosphatase inhibitor cocktails, and cell extracts stored at -80°C until use. […] For quantification, the band intensities for phosphorylated Rab 10 or LRRK2 were normalized to total expression of the respective protein.

Test [3] addresses T2, R1441C-LRRK2 (Homo sapiens, UniProt Q5S007, R1441C).
T2 construct: expressed in transfected cells; host or cells: HEK293T
Kind of test: LRRK2 kinase function in HEK293T cells over-expressing R1441C-LRRK2, endogenous Rab10 (western blot). Conditions: increasing doses of peptide. The test is classed as cell-based. On the procedure: Assessment of LRRK2 kinase function. To determine whether peptides targeting the LRRK2-FADD PPI could also alter kinase function, LRRK2 activity was assessed in a cellular setting, through the phosphorylation of an endogenous substrate (pT73-Rab10), as well as auto-phosphorylation (pS1292-LRRK2). […] Parallel cultures were transfected with only WT or R1441C-LRRK2; and endogenous levels of phosphorylated RablO were assessed. Following 72hr of total expression, the cells were washed in cold PBS and collected. Cell lysis was performed using the following buffer: 50mM Tris HCl, pH 7.5; 1mM EGTA; 0.27 M sucrose; 1% Triton X-100; supplemented with protease and phosphatase inhibitor cocktails, and cell extracts stored at -80°C until use. The extracts were separated by SDS-PAGE and proteins transferred to nitrocellulose membranes, which were probed for total/pS1292-LRRK2, total/pT73-Rab10, or β-actin. For quantification, the band intensities for phosphorylated Rab 10 or LRRK2 were normalized to total expression of the respective protein.

T1 sequence (Q5S007 whole entry G2019S): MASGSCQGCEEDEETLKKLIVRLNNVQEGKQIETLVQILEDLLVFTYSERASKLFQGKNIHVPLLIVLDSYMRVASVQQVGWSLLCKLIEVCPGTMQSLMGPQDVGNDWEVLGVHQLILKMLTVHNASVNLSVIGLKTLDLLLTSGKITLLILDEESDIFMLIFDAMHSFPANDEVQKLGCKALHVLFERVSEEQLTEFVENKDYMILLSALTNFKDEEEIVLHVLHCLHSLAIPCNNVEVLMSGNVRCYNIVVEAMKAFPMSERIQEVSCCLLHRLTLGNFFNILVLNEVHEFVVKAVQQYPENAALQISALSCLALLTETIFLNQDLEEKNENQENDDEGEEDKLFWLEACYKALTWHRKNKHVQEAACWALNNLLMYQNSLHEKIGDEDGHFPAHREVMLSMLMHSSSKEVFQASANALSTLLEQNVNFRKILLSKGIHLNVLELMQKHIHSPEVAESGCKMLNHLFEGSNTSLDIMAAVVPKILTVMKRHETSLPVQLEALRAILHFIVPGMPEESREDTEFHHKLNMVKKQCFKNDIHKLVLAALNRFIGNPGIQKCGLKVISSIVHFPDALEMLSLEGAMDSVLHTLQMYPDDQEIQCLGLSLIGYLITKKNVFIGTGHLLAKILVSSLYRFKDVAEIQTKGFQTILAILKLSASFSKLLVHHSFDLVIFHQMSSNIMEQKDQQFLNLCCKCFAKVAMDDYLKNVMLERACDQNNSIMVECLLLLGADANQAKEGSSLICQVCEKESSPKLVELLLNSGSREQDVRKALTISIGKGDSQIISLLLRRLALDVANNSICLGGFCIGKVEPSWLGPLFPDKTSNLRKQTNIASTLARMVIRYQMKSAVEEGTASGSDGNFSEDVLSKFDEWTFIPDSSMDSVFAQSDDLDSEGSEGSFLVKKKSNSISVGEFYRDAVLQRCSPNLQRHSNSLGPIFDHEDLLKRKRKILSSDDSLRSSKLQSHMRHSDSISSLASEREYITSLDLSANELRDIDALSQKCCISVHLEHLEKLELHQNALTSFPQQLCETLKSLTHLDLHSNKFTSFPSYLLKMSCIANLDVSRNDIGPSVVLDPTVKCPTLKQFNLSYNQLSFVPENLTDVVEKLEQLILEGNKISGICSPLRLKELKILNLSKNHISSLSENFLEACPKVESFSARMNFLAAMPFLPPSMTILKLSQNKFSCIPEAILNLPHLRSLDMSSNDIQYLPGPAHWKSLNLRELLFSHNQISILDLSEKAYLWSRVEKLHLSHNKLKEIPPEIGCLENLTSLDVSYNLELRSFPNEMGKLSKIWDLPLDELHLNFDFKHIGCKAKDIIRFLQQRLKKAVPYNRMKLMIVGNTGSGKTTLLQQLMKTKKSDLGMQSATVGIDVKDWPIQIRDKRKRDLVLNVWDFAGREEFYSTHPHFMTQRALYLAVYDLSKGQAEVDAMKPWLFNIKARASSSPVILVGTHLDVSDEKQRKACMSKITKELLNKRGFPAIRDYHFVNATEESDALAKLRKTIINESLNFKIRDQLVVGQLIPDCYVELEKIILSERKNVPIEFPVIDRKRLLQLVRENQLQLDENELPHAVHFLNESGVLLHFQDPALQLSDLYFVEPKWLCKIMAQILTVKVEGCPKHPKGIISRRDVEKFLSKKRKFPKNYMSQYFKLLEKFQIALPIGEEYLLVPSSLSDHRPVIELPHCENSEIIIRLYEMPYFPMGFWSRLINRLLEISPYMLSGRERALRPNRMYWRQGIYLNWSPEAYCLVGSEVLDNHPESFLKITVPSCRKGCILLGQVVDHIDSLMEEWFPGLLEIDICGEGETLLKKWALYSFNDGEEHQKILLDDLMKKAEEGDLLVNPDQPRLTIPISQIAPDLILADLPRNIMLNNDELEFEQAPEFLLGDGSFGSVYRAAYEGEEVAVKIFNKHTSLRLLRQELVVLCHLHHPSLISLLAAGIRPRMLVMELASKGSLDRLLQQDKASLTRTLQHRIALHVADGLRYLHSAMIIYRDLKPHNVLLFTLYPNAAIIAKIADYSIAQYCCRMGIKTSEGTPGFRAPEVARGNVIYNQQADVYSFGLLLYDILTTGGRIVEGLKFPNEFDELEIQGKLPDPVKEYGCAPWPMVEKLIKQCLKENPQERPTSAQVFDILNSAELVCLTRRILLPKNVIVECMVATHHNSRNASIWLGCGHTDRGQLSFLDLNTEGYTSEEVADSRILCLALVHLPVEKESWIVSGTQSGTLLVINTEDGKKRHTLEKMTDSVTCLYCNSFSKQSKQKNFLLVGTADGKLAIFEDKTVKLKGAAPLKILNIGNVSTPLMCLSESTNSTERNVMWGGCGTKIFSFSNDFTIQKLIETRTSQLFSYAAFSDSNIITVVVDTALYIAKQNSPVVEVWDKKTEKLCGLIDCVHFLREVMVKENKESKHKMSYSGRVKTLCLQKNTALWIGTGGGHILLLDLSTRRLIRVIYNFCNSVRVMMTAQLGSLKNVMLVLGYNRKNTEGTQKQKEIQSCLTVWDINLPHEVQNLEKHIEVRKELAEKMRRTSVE
T2 sequence (Q5S007 whole entry R1441C): as the sequence (Q5S007 whole entry G2019S) above, with R1441C, S2019G counted along it

Regarding “FARM5: FAM-labeled hydrocarbon-stapled FADD Armadillo domain peptide; mass fits SEQ ID NO. 6 KVADLVQEVQQAXDLQXRSK ({FAM-PEG3′}-KVADLVQEVQQA[S5]DLQ[S5]RSK-NH2; staple 13-17; also: FAM label, optionally 5(6)FAM-PEG3 on N-terminal lysine) [FAM-labeled hydrocarbon-stapled FADD Armadillo domain peptide; 6 …XDLQXRSK]”, the “percentage of neurons with apoptotic profiles” value in test [1] (0.1 µM) is given as “unable to significantly block apoptotic neuronal death”; in test [1] (1 µM, listed as FARMS) it was “significantly reduced; also recorded: reduced evidence of chromatin condensation”; in test [1] (10 µM, listed as FARMS), “significantly reduced; also recorded: restored neuronal death to WT levels”. The “phosphorylation of over-expressed Rab10 (pT73)” value in test [2] is “unexpected increase”. In addition, in test [2] (listed as FARMS), the “auto-phosphorylation of LRRK2 at Ser1292 (pS1292-LRRK2)” value was “any loss in phosphorylation of pS1292-LRRK2 or RablO could be detected; also recorded: un-affected”. Also, in test [3], the “phosphorylation of endogenous Rab10 (pT73) by R1441C-LRRK2” value is reported as “un-affected”.
